For assay [1], the system named is Aspergillus fumigatus. Description: Antifungal activity against azole-susceptible Aspergillus fumigatus isolate CM-237 by EUCAST microdilution method. Type of assay: functional. (In general: In broth dilution the organism is exposed to a series of concentrations in liquid medium.)
Assay [2] concerns Aspergillus nidulans. Description: Antifungal activity against Aspergillus nidulans isolate. Type of assay: functional.
For assay [3], the system named is Aspergillus fumigatus. Description: Antifungal activity against azole-resistant Aspergillus fumigatus isolate T18 harboring Cyp51A TR/L98H mutation assessed as inhibition of fungal growth at 1 mg/l relative to control. The class given is functional, organism-based.
Assay [4] concerns Aspergillus fumigatus. Description: Antifungal activity against azole-resistant Aspergillus fumigatus isolate T22 harboring Cyp51A TR/L98H mutation assessed as inhibition of fungal growth at 1 mg/l relative to control. The class given is functional, organism-based.
The subject of assay [5] is Aspergillus lentulus. Kind of assay: Antifungal activity against Aspergillus lentulus isolate. The class given is functional.
Assay [6] relates to Aspergillus fumigatus. Kind of assay: Antifungal activity against azole-susceptible Aspergillus fumigatus isolate CM-237 assessed as fungal growth at 1 mg/l relative to control. The class given is functional, organism-based.
The test system of assay [7] is Aspergillus fumigatus. Description: Antifungal activity against azole-resistant Aspergillus fumigatus isolate T11 harboring Cyp51A TR/L98H mutant gene assessed as inhibition of fungal growth at 1 mg/l relative to control. The class given is functional, organism-based.
In assay [8] the test system is Aspergillus niger. Description: Antifungal activity against Aspergillus niger isolate. The class given is functional.
Assay [9] has as its system Aspergillus fumigatus. Kind of assay: Antifungal activity against Aspergillus fumigatus isolates harboring Cyp51A TR/L98H mutation by EUCAST method. The class given is functional.
The subject of assay [10] is Aspergillus fumigatus. Kind of assay: Antifungal activity against azole-resistant Aspergillus fumigatus isolate R13 harboring Cyp51A TR/L98H mutant gene assessed as inhibition of fungal growth at 1 mg/l relative to control. Type of assay: functional, organism-based.
Assay [11] relates to Aspergillus fumigatus. Description: Antifungal activity against azole-susceptible Aspergillus fumigatus isolate CM-237 assessed as fungal growth at 0.5 mg/l relative to control. Type of assay: functional, organism-based.
The subject of assay [12] is Aspergillus fumigatus. Kind of assay: Antifungal activity against azole-resistant Aspergillus fumigatus isolate T22 harboring Cyp51A TR/L98H mutation assessed as inhibition of fungal growth at 0.5 mg/l relative to control. The class given is functional, organism-based.
Assay [13] has as its system Aspergillus fumigatus. Description: Antifungal activity against azole-resistant Aspergillus fumigatus isolate R13 harboring Cyp51A TR/L98H mutant gene assessed as inhibition of fungal growth at 0.5 mg/l relative to control. The class given is functional, organism-based.
Assay [14] relates to Aspergillus fumigatus. Kind of assay: Antifungal activity against azole-resistant Aspergillus fumigatus isolate T18 harboring Cyp51A TR/L98H mutation assessed as inhibition of fungal growth at 0.5 mg/l relative to control. Type of assay: functional, organism-based.
Assay [15] deals with Aspergillus fumigatus. Description: Antifungal activity against azole-resistant Aspergillus fumigatus isolate T11 harboring Cyp51A TR/L98H mutant gene assessed as inhibition of fungal growth at 0.5 mg/l relative to control. Type of assay: functional, organism-based.
Assay [16] relates to Aspergillus fumigatus. Description: Antifungal activity against azole-resistant Aspergillus fumigatus isolate T22 harboring Cyp51A TR/L98H mutation assessed as inhibition of fungal growth at 4 mg/l relative to control. The class given is functional, organism-based.
For assay [17], the system named is Aspergillus fumigatus. Kind of assay: Antifungal activity against azole-resistant Aspergillus fumigatus isolate R13 harboring Cyp51A TR/L98H mutant gene assessed as inhibition of fungal growth at 4 mg/l relative to control. The class given is functional, organism-based.
Assay [18] deals with Aspergillus fumigatus. Kind of assay: Antifungal activity against azole-resistant Aspergillus fumigatus isolate T18 harboring Cyp51A TR/L98H mutation assessed as inhibition of fungal growth at 4 mg/l relative to control. Type of assay: functional, organism-based.
The test system of assay [19] is Aspergillus fumigatus. Description: Antifungal activity against azole-resistant Aspergillus fumigatus isolate T11 harboring Cyp51A TR/L98H mutant gene assessed as inhibition of fungal growth at 4 mg/l relative to control. The class given is functional, organism-based.
Assay [20] relates to Aspergillus fumigatus. Description: Antifungal activity against azole-susceptible Aspergillus fumigatus isolate CM-237 assessed as fungal growth at 4 mg/l relative to control. Type of assay: functional, organism-based.

Values after ≈ are worked out from the molar mass of the structure shown. Active and inactive are the calls of the source. No cut-off for these calls is given here.

As for `C[C@@H](c1ncncc1F)[C@](O)(Cn1cncn1)c1ccc(F)cc1F` [VORICONAZOLE], the MIC (as a rule, the lowest concentration found to suppress growth) amounted to 0.5 µg/mL (≈ 1.43 µM) in [1]; 4 µg/mL (≈ 11.5 µM) in assay [2]; 4 µg/mL (≈ 11.5 µM) in assay [5]; 0.5 µg/mL (≈ 1.43 µM) in assay [8]; 2 µg/mL (≈ 5.73 µM) in assay [9]. Moreover, the result in assay [3] and in [4] was Active. Further, the inhibition entry in assay [6] and in assay [7] was “Active” each time. Besides, the result in [10] was inactive.

As to `CC[C@@H]([C@H](C)O)n1ncn(-c2ccc(N3CCN(c4ccc(OC[C@@H]5CO[C@@](Cn6cncn6)(c6ccc(F)cc6F)C5)cc4)CC3)cc2)c1=O` [POSACONAZOLE], the MIC was determined as 0.06 µg/mL (≈ 0.0856 µM) in assay [1]; 0.5 µg/mL (≈ 0.713 µM) in assay [2]; 0.25 µg/mL (≈ 0.357 µM) in assay [5]; 0.5 µg/mL (≈ 0.713 µM) in assay [8]; 0.25 µg/mL (≈ 0.357 µM) in assay [9]. Further, the result in assay [11] was Active. Further, the inhibition result in assay [12], in [13] and in assay [14] was “Active” in each case. In [15], the inhibition result was “inactive”.

With `CCC(C)n1ncn(-c2ccc(N3CCN(c4ccc(OCC5COC(Cn6cncn6)(c6ccc(Cl)cc6Cl)O5)cc4)CC3)cc2)c1=O` (stereo not given) [ITRACONAZOLE], the MIC was 0.25 µg/mL (≈ 0.354 µM) in assay [1]; 1 µg/mL (≈ 1.42 µM) in assay [2]; 0.5 µg/mL (≈ 0.709 µM) in assay [5]; 2 µg/mL (≈ 2.83 µM) in [8]; more than 4 µg/mL in [9]. Moreover, the inhibition result in assay [16], in assay [18] and in assay [19] was “inactive” in each case. Further, in assay [17], the inhibition result was “Active”. The outcome in assay [20] was Active.

The record behind these values is ChEMBL document CHEMBL1671758, “Environmental study of azole-resistant Aspergillus fumigatus and other aspergilli in Austria, Denmark, and Spain” (2010).
